What all share (format): cell-based, mouse
Assay [1] concerns MOR139-1. The assay can be described thus: High-throughput multiplexed odorant screening (Smell-seq), barcode RNA-seq readout. Conditions: OR MOR139-1; pair called as hit, FDR=1%. An excerpt: (§1) We subsequently screened 182 odorants at three concentrations in triplicate against the OR cell library, the equivalent of ˜85,000 individual luciferase assays including controls (FIG. 10A, Table 2). Each 96-well plate in the assay contained positive control odorants and solvent DMSO wells for normalization (FIG. 16). We used the EdgeR software package to determine differentially responsive ORs based on a negative binomial model of barcode counts. We found 114 OR-odorant interactions (out of 7,200 possible), 81 of which are novel, and 24 interactions with 15 orphan receptors (FIG. 10C, FIG. 17 and Supplementary Table 4) (FDR=1%; Benjamini-Hochberg correction). Overall 28 of 39 receptors were activated by at least one odorant, and 68 of 182 odorants activated at least one OR (Table 4). We chose 37 interactions of at least 1.2 fold induction to test individually with a previously developed transient OR assay that has several important differences (FIG. 18). Of the 28 interactions called as hits at an FDR of 1%, 21 of them replicated in this orthogonal system (FIG. 17). […] Conversely, we also detect 14 interactions that this previous study tested, but called negative.

Assay [2] concerns Olfr62. The description is as above. Conditions: OR Olfr62; pair called as hit, FDR=1%.
Text: as §1

For assay [3], the system named is MOR189-1. The assay is described as above. Conditions: OR MOR189-1; pair called as hit, FDR=1%.
Text: as §1

Assay [4] deals with MOR170-1. In words: High-throughput multiplexed odorant screening (Smell-seq), 96-well, barcode RNA-seq readout. Conditions: OR MOR170-1; pair called as hit, FDR=1%. As for the experimental part: (§2) 10. High-Throughput Odorant Screening
(§3) The OR library cell line was thawed from a liquid nitrogen frozen stock into a T-225 flask (Corning) three days before seeding into a 96-well plate for screening. The library was seeded at 6,666 cells per well in 100 ul of DMEM. 24 hours later a working concentration of 1 ug/ml of doxycycline in DMEM was added to the wells. 24 hours after induction, the media was removed from each plate and replaced with 25 ul of odorant diluted in OptiMEM. Each odor was added at three different concentrations (10 uM, 100 uM, 1 mM) in triplicate with the same amount of final DMSO (1%). Each plate contained two control odorants at a three concentration (10 uM, 100 uM, 1 mM) in triplicate and three wells containing 1% DMSO dissolved in media. The library was incubated with odorants for three hours in a cell culture incubator with the lids removed.
(§4) After odor incubation, media was pipetted out of the plates and cells were lysed by adding 25 uL of ice-cold Cells-to-cDNA II Lysis Buffer (Thermo Fisher) and pipetting up and down to homogenize and lyse cells. The lysate was then heated to 75° C. for 15 minutes and flash frozen with liquid nitrogen and kept at −80 C until further processing. Then 0.5 uL DNase I (New England Biolabs) was added to lysate, and incubated at 37° C. for 15 minutes. To anneal the RT primer, 5 ul of lysate from each well was combined with 2.5 ul of 10 mM dNTPs (New England Biosciences), 1 ul of 2 uM gene specific RT primer (OL003), and 1.5 ul of H2O. The reaction was heated to 65° C. for 5 min and cooled back down to 0° C. After annealing, 1 ul of M-MuLV Reverse Transcriptase (Enzymatics), 1 ul of buffer, and 0.25 ul of RNase Inhibitor (Enzymatics) were added to each reaction. Reactions were incubated at 42° C. for 60 min and the RT enzyme was heat inactivated at 85° C. for 10 min.
(§5) For each batch, qPCR was performed on a few wells (OL005F and OL013) with SYBR FAST qPCR Mastermix to determine the number of cycles necessary for PCR based library preparation. The reaction and cycling conditions are optimized as follows: 95° C. for 3 minutes, 40 cycles of 95° C. for 3 seconds and 60° C. for 20 seconds. After qPCR, 5 ul of each RT reaction was combined with 0.4 ul of 10 uM primers containing sequencing adaptors (OL005F and OL013), 10 ul of NEB-Next Q5 Mastermix (New England Biosciences) and 4.2 ul H2O, the PCR was carried out according to the manufacturer's protocol. The forward primer contains the P7 adaptor sequence and an index identifying the well in the assay and the reverse primer contains the P5 adaptor sequence and an index identifying the plate in the assay. PCR products were pooled together by plate and purified with the DNA Clean and Concentrator Kit. Library concentrations were quantified using a Tape Station 2200 and a Qubit (Thermo Fisher). The libraries were sequenced with two index reads and a single end 75-bp read on a NextSeq 500 in high-output mode (Illumina).
(§6) 11. Analysis of Next-Generation Sequencing Data
(§7) Samples were identified via indexing by their PCR indexes adapters unique for each well (5′ end) and unique for each plate (3′ end). The well barcodes followed the 7 bp indexing scheme in (Illumina Sequencing Library Preparation for Highly Multiplexed Target Capture and Sequencing Matthias Meyer, Martin Kircher, Cold Spring Harb Protoc; 2010; doi:10.1101/pdb.prot5448). The plate indexing scheme followed the Illumina indexing scheme. Sequencing data was demultiplexed and 15 bp barcode sequences were counted with only exact matches by custom python and bash scripts.
(§8) 12. Statistical Methods for Calling Hits
(§9) Count data was then analyzed using the differential expression package EdgeR. To filter out ORs with low representation, we set a cutoff that an OR had to contain at least 0.5% of the reads from more than 399 of the 1954 test samples. This filtered out 3 of 42 ORs which were underrepresented in the cell library (MOR172-1, MOR176-1 and MOR181-1). […]

Assay [5] concerns MOR25-1. The assay can be described thus: High-throughput multiplexed odorant screening (Smell-seq), barcode RNA-seq readout. Conditions: OR MOR25-1; pair called as hit, FDR=1%.
Text: as §1

The test system of assay [6] is MOR131-1. The assay is described as above. Conditions: OR MOR131-1; pair called as hit, FDR=1%.
Text: as §1

Assay [7] relates to MOR5-1. In words: High-throughput multiplexed odorant screening (Smell-seq), 96-well, barcode RNA-seq readout. Conditions: OR MOR5-1; pair called as hit, FDR=1%. The protocol:
as §2, §3, §4, §5, §6, §7, §8, §9

The test system of assay [8] is MOR23-1. In words: High-throughput multiplexed odorant screening (Smell-seq), barcode RNA-seq readout. Conditions: OR MOR23-1; pair called as hit, FDR=1%.
Text: as §1

The test system of assay [9] is MOR13-1. In words: High-throughput multiplexed odorant screening (Smell-seq), 96-well, barcode RNA-seq readout. Conditions: OR MOR13-1; pair called as hit, FDR=1%.
Text: We find that chemicals with similar features activate similar sets of ORs, including those receptors we deorphanize in this study. For example, the previously orphan MOR13-1 is activated by four chemicals with polar groups attached, in three cases, to stiff non-rotatable scaffolds. Another example is, MOR19-1, which has clear affinity for the salicylate functional group. To better understand how chemical similarity relates to receptor activation without relying on incomplete and sometimes arbitrary chemical descriptors, we used a previously validated computational autoencoder to represent each chemical in a ˜292 dimensional latent space, allowing nearly lossless compression of chemical structure (Data not shown). We find chemicals that activate the same OR tend to cluster distinctly (FIG. 10D, FIG. 20). […] Many, but not all of the receptors. […] Understanding the space of chemicals that activates each OR establishes the groundwork for prediction of novel odorant-OR interactions.
as §2, §3
After odor incubation, media was pipetted out of the plates and cells were lysed by adding 25 uL of ice-cold Cells-to-cDNA II Lysis Buffer (Thermo Fisher) and pipetting up and down to homogenize and lyse cells. The lysate was then heated to 75° C. for 15 minutes and flash frozen with liquid nitrogen and kept at −80 C until further processing. Then 0.5 uL DNase I (New England Biolabs) was added to lysate, and incubated at 37° C. for 15 minutes. […]
For each batch, qPCR was performed on a few wells (OL005F and OL013) with SYBR FAST qPCR Mastermix to determine the number of cycles necessary for PCR based library preparation. […] Library concentrations were quantified using a Tape Station 2200 and a Qubit (Thermo Fisher). The libraries were sequenced with two index reads and a single end 75-bp read on a NextSeq 500 in high-output mode (Illumina). […]

The subject of assay [10] is MOR30-1. In words: High-throughput multiplexed odorant screening (Smell-seq), barcode RNA-seq readout. Conditions: OR MOR30-1; pair called as hit, FDR=1%.
Text: as §1

Take `c1ccc2ncccc2c1`: the “Minimum Activating Concentration” value was determined as 100 µM in assay [1], 1000 µM in [2], 1000 µM in assay [3] and 100 µM in assay [4].
For the compound `C=C(C)C1CC=C(C)C(=O)C1` (single isomer, unassigned; (-)) [(−)-Carvone], the “Minimum Activating Concentration” value in [5] was 1000 µM.
Consider `C=C(C)C1CC=C(C=O)CC1` (single isomer, unassigned; (-)) [(−)-Perillaaldehyde], for which, in assay [6], the “Minimum Activating Concentration” value amounted to 1000 µM.
On to `CCCCC(Br)C(=O)O` (centres unmarked) [2-Bromohexanoic acid], for which the “Minimum Activating Concentration” value in [4] and in assay [7] was 1000 µM throughout.
For the compound `CCCCCCC(Br)C(=O)O` (centres unmarked) [2-Bromooctanoic acid], the “Minimum Activating Concentration” value in assay [8] and in [7] was 1000 µM in each case.
For `CC(=O)OCCc1ccccc1` [2-Phenethyl acetate], the “Minimum Activating Concentration” value in [4] is 1000 µM.
`O=C1Cc2ccccc2O1` [2-coumaranone]: the “Minimum Activating Concentration” value in assay [2] turned out to be 1000 µM.
Regarding `CCC(C)c1nccnc1OC` (centres unmarked) [2-sec-Butyl-3-methoxypyrazine], in assay [1], the “Minimum Activating Concentration” value was found to be 1000 µM.
As for `O=C1CCOc2ccccc21` [4-Chromanone], the “Minimum Activating Concentration” value came to 1000 µM in assay [1], 1000 µM in [3] and 100 µM in assay [4].
As to `CCc1ccc(O)cc1` [4-Ethylphenol], the “Minimum Activating Concentration” value in assay [4] stood at 1000 µM.
Take `O=C(O)CCCCCBr` [6-Bromohexanoic acid]: the “Minimum Activating Concentration” value in assay [8] stood at 100 µM; in assay [7] it was 1000 µM.
Regarding `C=C(C)[C@@H]1CC[C@@H](C)C(=O)C1` [(+)-Dihydrocarvone], the “Minimum Activating Concentration” value in assay [1] came to 1000 µM.
Same read-out and setting: for `CC(C)=C1CC[C@@H](C)CC1=O` [(+)-Pulegone] the value was 1000 µM.
As for `COc1ccc(C=O)cc1` [Anisaldehyde], the “Minimum Activating Concentration” value in assay [4] was determined as 1000 µM.
For the compound `O=C(c1ccccc1)c1ccccc1` [Benzophenone], the “Minimum Activating Concentration” value in [2] is 1000 µM.
Regarding `CC(=O)OCc1ccccc1` [Benzyl acetate], the “Minimum Activating Concentration” value in assay [4] amounted to 1000 µM.
In the case of `CCCC=O` [Butanal], in assay [1], the “Minimum Activating Concentration” value amounted to 1000 µM.
Take `OCC=Cc1ccccc1` [Cinnamyl alcohol]: the “Minimum Activating Concentration” value in assay [4] was 1000 µM.
As to `O=C(O)C1CCC1` [Cyclobutanecarboxylic acid], the “Minimum Activating Concentration” value in assay [9] is 1000 µM.
Turning to `CCCCCCCCCC=O` [Decanal], the “Minimum Activating Concentration” value came to 100 µM in assay [10] and 1000 µM in assay [5].
For `CCCCCCCCCC(=O)O` [Decanoic-Acid], the “Minimum Activating Concentration” value in assay [10] turned out to be 10 µM; in assay [5] it was 100 µM; in [7], 1000 µM.
With `CCCCCC1=C(C)CCC1=O` [Dihydrojasmone], in [1], the “Minimum Activating Concentration” value was 1000 µM.
Turning to `CNc1ccccc1C(=O)OC` [Dimethyl anthranilate], the results for the “Minimum Activating Concentration” value in assay [1] and in [4] were 1000 µM and 10 µM, respectively.
As for `C=CCc1ccc(OC)c(OC)c1` [Eugenol methyl ether], the “Minimum Activating Concentration” value in assay [1] is 1000 µM; in [3], 1000 µM; in assay [4], 10 µM.
As to `C=CCc1ccc(O)c(OC)c1` [Eugenol], the “Minimum Activating Concentration” value in assay [1] came to 1000 µM.
As for `CCCCCCC=O` [Heptanal], the “Minimum Activating Concentration” value in [8] turned out to be 1000 µM.
For the compound `CC(C)=CCC/C(C)=C\COC(=O)C(C)C` [Neryl isobutyrate], in assay [1], the “Minimum Activating Concentration” value came out at 1000 µM.
Take `CCCCCCCCC=O` [Nonanal]: the “Minimum Activating Concentration” value in [10], in assay [8] and in [7] was 1000 µM throughout.
For `CCCCCCCCC(=O)O` [Nonanoic Acid], the “Minimum Activating Concentration” value in assay [10] was found to be 100 µM; in [8], 1000 µM; in [5] it was 1000 µM; in assay [7], 100 µM.
Take `CCCCCCCC=O` [Octanal]: the results for the “Minimum Activating Concentration” value in assay [8] and in assay [7] were 100 µM and 1000 µM, respectively.
For the compound `O=Cc1ccc2c(c1)OCO2` [Piperonal], the “Minimum Activating Concentration” value in assay [2] and in assay [4] was 1000 µM in each case.
For `COc1cc(C=O)ccc1O` [Vanillin], the “Minimum Activating Concentration” value in assay [4] was 1000 µM.
As to `C/C=C/C(=O)C1=C(C)CCCC1(C)C` [beta-Damascone], the “Minimum Activating Concentration” value in [3] was 1000 µM.
On to `CC(=O)/C=C/C1=C(C)CCCC1(C)C` [beta-ionone], for which the “Minimum Activating Concentration” value in [1] and in assay [3] was 1000 µM throughout.
`CCCCC/C=C\CCC=O` [cis-4-Decenal]: the “Minimum Activating Concentration” value in assay [7] is 1000 µM.
Regarding `CC/C=C\CCCCC=O` [cis-6-Nonenal], in assay [7], the “Minimum Activating Concentration” value is 1000 µM.
Take `C/C=C(\C)C=O` [trans-2-Methyl-2-butenal (2MB)]: the “Minimum Activating Concentration” value in [9] was found to be 1000 µM.

The values are drawn from US20200255844A1, “MULTIPLEXED RECEPTOR-LIGAND INTERACTION SCREENS” (THE REGENTS OF THE UNIVERSITY OF CALIFORNIA, priority 2017, published 2020).
